Calls of active or inactive are those of the source. No cut-off for these calls is given here.
Key:
[1] = target: Aldo-keto reductase family 1 member B1 (Sus scrofa, UniProt P80276); assay: Inhibition of pig lens aldose reductase by spectrophotometry
[2] = Inhibition of pig kidney aldehyde reductase by spectrophotometry; set-up: species or system Sus scrofa
[3] = Inhibition of bovine liver NADH oxidase; set-up: species or system Bos taurus
[4] = target: Aldo-keto reductase family 1 member B1 (Sus scrofa) (UniProt P80276); assay: Inhibition of pig lens aldose reductase at 1.8 uM by Lineweaver-Burke plot
[5] = target: Aldo-keto reductase family 1 member B1 (Sus scrofa) (UniProt P80276); assay: Inhibition of pig lens aldose reductase at 0.54 uM by Lineweaver-Burke plot

IC50 [1] [µM]	IC50 [2] [µM]	IC50 [3] [µM]	Activity [4]	Activity [5]	SMILES
30.1	43.5	> 67			COc1cc(O)c2c(=O)c(OS(=O)(=O)O)c(-c3ccc(O)c(OC)c3)oc2c1
50.9	55.6	> 71			O=c1c(OS(=O)(=O)O)c(-c2ccc(O)c(O)c2)oc2cc(O)cc(O)c12
69	> 69	> 69			COc1cc(-c2oc3cc(O)cc(O)c3c(=O)c2OS(=O)(=O)O)ccc1O [PERSICARIN]
1.8	49.5	> 54	Active	Active	COc1cc(-c2oc3cc(OS(=O)(=O)O)cc(O)c3c(=O)c2OS(=O)(=O)O)ccc1O
5	> 50	> 50			COc1ccc(-c2oc3cc(OS(=O)(=O)O)cc(O)c3c(=O)c2O[C@@H]2O[C@H](CO)[C@@H](O)[C@H](O)[C@H]2O)cc1O
16	> 64	> 64			O=c1c(O[C@@H]2O[C@H](CO)[C@@H](O)[C@H](O)[C@H]2O)c(-c2ccc(O)c(O)c2)oc2cc(O)cc(O)c12 [ISOQUERCETIN]
> 91	> 91	> 91			COc1cc(O)c2c(=O)c(O)c(-c3ccc(O)c(OC)c3)oc2c1 [RHAMNAZIN]

SMILES	IC50 [1] [µM]	IC50 [2] [µM]	IC50 [3] [µM]	Activity [4]	Activity [5]
COc1cc(-c2oc3cc(O)cc(O)c3c(=O)c2O)ccc1O [ISORHAMNETIN]	> 95	> 95	88.6		
O=c1c(O)c(-c2ccc(O)c(O)c2)oc2cc(O)cc(O)c12 [QUERCETIN]	50.1	> 91	65.3		
